Experiments:
[1] = tested on: HSV-1; assay: Plaque assay of supernatant of HSV-1 infected Vero cells; type: cell-based, herpes simplex virus type 1 (KOS) in Vero cells
[2] = tested on: HSV-1; assay: Plaque assay of supernatant of reactivated iPSC-neurons titrated on Vero cells; type: cell-based, herpes simplex virus type 1 (KOS) in human iPSC-neurons; details: 5BVdU+IFN-α then drug 48h, NaB reactivation
[3] = tested on: HSV-1; assay: qPCR for HSV-1 DNA copy number in iPSC-neurons; type: cell-based, herpes simplex virus type 1 (KOS) in human iPSC-neurons; details: acutely infected iPSC-neurons, 24hpi, 50 μM; untreated 3,461,970
[4] = tested on: HSV-1; assay: FISH analysis of HSV-1 viral DNA in infected cells; type: cell-based, herpes simplex virus type 1; details: HSV-1 infected cells
[5] = tested on: HSV-1 ICP0 and ICP4; assay: Immunocytochemistry of HSV-1 immediate early genes ICP0 and ICP4; type: cell-based, herpes simplex virus type 1; details: infected cells
[6] = tested on: HSV-1; assay: Reactivation of quiescent HSV-1 infection in iPSC-neurons, flow cytometry; type: cell-based, herpes simplex virus type 1 (KOS) in human iPSC-neurons; details: compared to vehicle
[7] = tested on: VZV; assay: VZV infection of ARPE-19 cells, luciferase activity; type: cell-based; details: PAA

| SMILES | infectious particles in supernatant of treated infected cultures (plaque assay) ([1]; 50 μM) | viral DNA copy number by FISH [4] | expression of HSV-1 immediate early genes ICP0 and ICP4 [5] | other results |
| --- | --- | --- | --- | --- |
| Nc1nc2c(ncn2COCCO)c(=O)[nH]1 [ACV, Acyclovir] | undetectable | substantial reduction | markedly reduced expression | infectious viral particles in supernatant after reactivation [2]: no detectable infectious viral particles; number of copies of viral DNA in 5 ng of total DNA [3]: 483 copies; mean intensity of fluorescence (MFI) after reactivation [6]: lowered |
| CO/C1=C\C(C)=C\[C@@H](C)[C@@H](O)[C@@H](C)C/C(C)=C/C=C/[C@H](OC)[C@@H]([C@@H](C)[C@@H](O)[C@H](C)[C@@]2(O)C[C@@H](O)[C@H](C)[C@@H](C(C)C)O2)OC1=O [BFLA, bafilomycin A1] | – | – | – | infectious particles in supernatant of treated infected cultures (plaque assay) ([1]; BFLA 0.1 μM): undetectable |
| CCN(CC)CCCC(C)Nc1ccnc2cc(Cl)ccc12 (centres unmarked) [CQ, chloroquine] | undetectable | – | – | – |
| O=C(O)CP(=O)(O)O [PAA, phosphonoacetic acid] | – | substantial reduction | markedly reduced expression | inhibition of VZV infection [7]: effectively inhibited |

— publication PMC4536133 (Antiviral research, 2015)
